Experimental data: patent US12139487B2, “Compounds and uses thereof” (Foghorn Therapeutics Inc., priority 2022, dated 2024)
pIC50: −log10 of the molar value.

Experiments:
BRM = molecular target: T1, BRM (Homo sapiens, UniProt P51531); test: ATPase catalytic activity assay (ADP-Glo), BRM; assay type: biochemical; details: ATPase assay, selectivity BRG1/BRM, Table 10
T1 construct: made in house; host or cells: High Five insect cells
Experimental: The ATPase catalytic activity of BRM or BRG-1 was measured by an in vitro biochemical assay using ADP-Glo™ (Promega, V9102). The ADP-Glo™ kinase assay is performed in two steps once the reaction is complete. The first step is to deplete any unconsumed ATP in the reaction. The second step is to convert the reaction product ADP to ATP, which will be utilized by the luciferase to generate luminesce and be detected by a luminescence reader, such as Envision.
The assay reaction mixture […] contains 30 nM of BRM or BRG-1, 20 nM salmon sperm DNA (from Invitrogen, UltraPure™ Salmon Sperm DNA Solution, cat #15632011), and 400 μM of ATP in the ATPase assay buffer, which comprises of 20 mM Tris, pH 8, 20 mM MgCl2, 50 mM NaCl, 0.1% Tween-20, and 1 mM fresh DTT (Pierce™ DTT (Dithiothreitol), cat #20290). The reaction is initiated by the addition of the 2.5 μL ATPase solution to 2.5 μL ATP/DNA solution on low volume white Proxiplate-384 plus plate (PerkinElmer, cat #6008280) and incubates at room temperature for 1 hour. Then, following addition of 5 μL of ADP-Glo™ Reagent provided in the kit, the reaction incubates at room temperature for 40 minutes. Then, 10 μL of Kinase Detection Reagent provided in the kit is added to convert ADP to ATP, and the reaction incubates at room temperature for 60 minutes. Finally, luminescence measurement is collected with a plate-reading luminometer, such as Envision.

[1] = tested on: BRM-dependent transcription (BRG1 mutant lung cancer cell line A549); test: BRM-dependent transcription, MMTV luciferase reporter in BRG1 mutant A549 cells; assay type: cell-based; details: Table 11; for pIC50: Homo sapiens, A549, 6 h, A549-MMTV luciferase reporter, dexamethasone induced, 6 hours; for Ratio (MDA-MMTV IC50 (μM) divided by A549-MMTV IC50 (μM)): MMTV luciferase reporter cell lines, selectivity BRG1/BRM
Experimental: The potential inhibitory effects of compounds on BRG1 and BRM dependent transcription was study by testing the activity of against the BRG1 mutant lung cancer cell line A549 and a MDA cell line with BRM removed by CRISPR. Both cell lines were genetically engineered with a BRG1 or BRM-dependent mouse mammary tumor virus luciferase reporter. Luciferase transcription was induced by dexamethasone in the presence of compound at different concentrations and luminescence was measured using a plate reader 6 hours after stimulation.

T1 sequence (P51531 whole entry): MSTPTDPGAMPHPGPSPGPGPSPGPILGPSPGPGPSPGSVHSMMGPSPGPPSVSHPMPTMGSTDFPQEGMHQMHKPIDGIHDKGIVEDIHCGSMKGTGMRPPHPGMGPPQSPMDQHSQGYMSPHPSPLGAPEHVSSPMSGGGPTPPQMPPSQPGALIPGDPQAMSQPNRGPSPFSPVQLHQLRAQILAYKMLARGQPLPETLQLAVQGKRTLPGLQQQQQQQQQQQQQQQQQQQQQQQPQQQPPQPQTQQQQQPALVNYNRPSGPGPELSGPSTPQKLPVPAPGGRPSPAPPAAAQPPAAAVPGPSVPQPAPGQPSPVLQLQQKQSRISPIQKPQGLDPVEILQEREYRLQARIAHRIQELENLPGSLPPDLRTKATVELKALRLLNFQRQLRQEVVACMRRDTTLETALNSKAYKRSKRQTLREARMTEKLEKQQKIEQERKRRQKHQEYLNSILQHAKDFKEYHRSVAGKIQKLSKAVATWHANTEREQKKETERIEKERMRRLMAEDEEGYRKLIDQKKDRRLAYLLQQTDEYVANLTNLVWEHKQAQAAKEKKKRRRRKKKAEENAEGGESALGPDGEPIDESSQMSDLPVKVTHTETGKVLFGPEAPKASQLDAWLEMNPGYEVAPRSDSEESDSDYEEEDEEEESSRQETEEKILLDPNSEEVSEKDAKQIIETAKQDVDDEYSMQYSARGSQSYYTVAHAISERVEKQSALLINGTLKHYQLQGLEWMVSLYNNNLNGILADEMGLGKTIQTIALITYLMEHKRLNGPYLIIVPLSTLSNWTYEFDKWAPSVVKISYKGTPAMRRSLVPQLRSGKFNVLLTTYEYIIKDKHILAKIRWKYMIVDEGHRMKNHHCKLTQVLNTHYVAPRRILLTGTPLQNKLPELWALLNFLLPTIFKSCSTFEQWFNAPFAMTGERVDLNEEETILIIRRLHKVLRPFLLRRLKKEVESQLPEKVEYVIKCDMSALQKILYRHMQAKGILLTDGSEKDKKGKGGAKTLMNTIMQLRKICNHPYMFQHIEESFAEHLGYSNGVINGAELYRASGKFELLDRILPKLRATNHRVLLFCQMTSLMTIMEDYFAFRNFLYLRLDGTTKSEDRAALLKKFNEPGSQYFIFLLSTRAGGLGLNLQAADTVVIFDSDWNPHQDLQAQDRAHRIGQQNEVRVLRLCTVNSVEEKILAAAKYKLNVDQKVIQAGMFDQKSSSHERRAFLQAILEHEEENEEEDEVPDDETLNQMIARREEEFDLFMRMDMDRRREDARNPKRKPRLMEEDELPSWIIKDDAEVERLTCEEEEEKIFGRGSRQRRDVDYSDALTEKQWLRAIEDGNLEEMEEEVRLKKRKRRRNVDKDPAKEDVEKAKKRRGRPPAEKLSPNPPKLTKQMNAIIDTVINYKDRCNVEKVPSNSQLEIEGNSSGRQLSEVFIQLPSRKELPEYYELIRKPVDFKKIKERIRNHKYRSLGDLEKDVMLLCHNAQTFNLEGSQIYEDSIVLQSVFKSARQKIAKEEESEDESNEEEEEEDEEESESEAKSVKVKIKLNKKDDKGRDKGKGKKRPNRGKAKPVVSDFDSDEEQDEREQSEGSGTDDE

SMILES: C[C@@H]1CN(c2cccc(-c3ccc4cnc(CNC(=O)c5cc(F)c6c(c5)S(=O)(=O)[C@@H](F)CCO6)cc4n3)n2)C[C@H](C)O1 [Compound 14]
- Ratio (BRG1 IC50 (μM) divided by BRM IC50 (μM)) (BRM): 9.92

SMILES: C[C@@H]1CN(c2cccc(-c3ccc4cnc(CNC(=O)c5cc(F)c6c(c5)S(=O)(=O)[C@@H](F)CCO6)cc4n3)n2)C[C@H](C)O1 [Compound 325]
- Ratio (BRG1 IC50 (μM) divided by BRM IC50 (μM)) (BRM): 13.06

SMILES: CCOc1nc(C(F)F)ccc1-c1ccc2cnc(CNC(=O)c3cc(Cl)c4c(c3)S(=O)(=O)[C@@H](F)CCO4)cc2n1 [Compound 331, (R)-9-chloro-N-((2-(6-(difluoromethyl)-2-ethoxypyridin-3-yl)-1,6-naphthyridin-7-yl)methyl)-4-fluoro-3,4-dihydro-2H-benzo[b][1,4]oxathiepine-7-carboxamide 5,5-dioxide]
- pIC50 [1]: 7.77
- Ratio (MDA-MMTV IC50 (μM) divided by A549-MMTV IC50 (μM)) [1]: 33.18

SMILES: O=C(NCc1cc2nc(-c3ccc(C(F)F)nc3OCC3CC3)ccc2cn1)c1cc(F)c2c(c1)S(=O)(=O)[C@@H](F)CCO2 [Compound 332, (4R)—N-[[2-[2-(cyclopropylmethoxy)-6-(difluoromethyl)-3-pyridyl]-1,6-naphthyridin-7-yl]methyl]-4,9-difluoro-5,5-dioxo-3,4-dihydro-2H-1,5benzoxathiepine-7-carboxamide]
- pIC50 [1]: 7.68
- Ratio (MDA-MMTV IC50 (μM) divided by A549-MMTV IC50 (μM)) [1]: 28.13

SMILES: COc1cccc(-c2ccc3cnc(CNC(=O)c4cc(F)c5c(c4)S(=O)(=O)[C@@H](F)CCO5)cc3n2)n1 [Compound 333]
- pIC50 [1]: 7.81
- Ratio (MDA-MMTV IC50 (μM) divided by A549-MMTV IC50 (μM)) [1]: 31.11

SMILES: O=C(NCc1cc2nc(-c3cccc(C(F)F)n3)ccc2cn1)c1cc(F)c2c(c1)S(=O)(=O)[C@@H](F)CCO2 [Compound 334]
- pIC50 [1]: 7.72
- Ratio (MDA-MMTV IC50 (μM) divided by A549-MMTV IC50 (μM)) [1]: 26.38

SMILES: O=C(NCc1cc2nc(-c3cccc(C(F)(F)F)n3)ccc2cn1)c1cc(F)c2c(c1)S(=O)(=O)[C@@H](F)CCO2 [Compound 335]
- pIC50 [1]: 7.79
- Ratio (MDA-MMTV IC50 (μM) divided by A549-MMTV IC50 (μM)) [1]: 30.32

SMILES: O=C(NCc1cc2nc(-c3cccc(C4CC4(F)F)n3)ccc2cn1)c1cc(F)c2c(c1)S(=O)(=O)[C@@H](F)CCO2 (stereo partly drawn) [Compound 336]
- pIC50 [1]: 7.82
- Ratio (MDA-MMTV IC50 (μM) divided by A549-MMTV IC50 (μM)) [1]: 22.47

SMILES: O=C(NCc1cc2nc(-c3cccc(C4CC4)n3)ccc2cn1)c1cc(Cl)c2c(c1)S(=O)(=O)[C@@H](F)CCO2 [Compound 337]
- pIC50 [1]: 7.70
- Ratio (MDA-MMTV IC50 (μM) divided by A549-MMTV IC50 (μM)) [1]: 30.81

SMILES: COc1ccccc1-c1ccc2cnc(CNC(=O)c3cc(F)c4c(c3)S(=O)(=O)[C@@H](F)CCO4)cc2n1 [Compound 338]
- pIC50 [1]: 7.85
- Ratio (MDA-MMTV IC50 (μM) divided by A549-MMTV IC50 (μM)) [1]: 21.68

SMILES: Cc1cc(C(=O)NCc2cc3nc(-c4cccc(C5CC5)n4)ccc3cn2)cc2c1OCC[C@H](F)S2(=O)=O [Compound 339]
- pIC50 [1]: 7.71
- Ratio (MDA-MMTV IC50 (μM) divided by A549-MMTV IC50 (μM)) [1]: 40.09

SMILES: Cc1cc(C(=O)NCc2cc3nc(N4CCOc5ccc(C(F)F)nc54)ccc3cn2)cc2c1OCC[C@H](F)S2(=O)=O [Compound 340]
- pIC50 [1]: 7.80
- Ratio (MDA-MMTV IC50 (μM) divided by A549-MMTV IC50 (μM)) [1]: 26.04

SMILES: C[C@@H]1CN(c2cccc(-c3ccc4cnc(CNC(=O)c5cc(F)c6c(c5)S(=O)(=O)[C@@H](F)CO6)cc4n3)n2)C[C@H](C)O1 [Compound 341]
- pIC50 [1]: 6.91
- Ratio (MDA-MMTV IC50 (μM) divided by A549-MMTV IC50 (μM)) [1]: 28.75

SMILES: O=C(NCc1cc2nc(-c3cccc(OC(F)F)c3)ccc2cn1)c1cc(F)c2c(c1)S(=O)(=O)[C@@H](F)CCO2 [Compound 342]
- pIC50 [1]: 7.75
- Ratio (MDA-MMTV IC50 (μM) divided by A549-MMTV IC50 (μM)) [1]: 23.62

SMILES: O=C(NCc1cc2nc(-c3ccnc(N4CCC4)n3)ccc2cn1)c1cc(F)c2c(c1)S(=O)(=O)[C@@H](F)CCO2 [Compound 343]
- pIC50 [1]: 7.95
- Ratio (MDA-MMTV IC50 (μM) divided by A549-MMTV IC50 (μM)) [1]: 24.93

SMILES: O=C(NCc1cc2nc(-c3ccnc(C4CC4)n3)ccc2cn1)c1cc(F)c2c(c1)S(=O)(=O)[C@@H](F)CCO2 [Compound 344]
- pIC50 [1]: 7.73
- Ratio (MDA-MMTV IC50 (μM) divided by A549-MMTV IC50 (μM)) [1]: 25.42

SMILES: O=C(NCc1cc2nc(-c3ccnc(N4CCCC4)n3)ccc2cn1)c1cc(Cl)c2c(c1)S(=O)(=O)[C@@H](F)CCO2 [Compound 345]
- pIC50 [1]: 7.81
- Ratio (MDA-MMTV IC50 (μM) divided by A549-MMTV IC50 (μM)) [1]: 21.59

SMILES: O=C(NCc1cc2nc(-c3cccc(OC(F)F)n3)ccc2cn1)c1cc(Cl)c2c(c1)S(=O)(=O)[C@@H](F)CCO2 [Compound 346]
- pIC50 [1]: 7.70
- Ratio (MDA-MMTV IC50 (μM) divided by A549-MMTV IC50 (μM)) [1]: 44.98

SMILES: Cc1ccc(-c2ccc3cnc(CNC(=O)c4cc(Cl)c5c(c4)S(=O)(=O)[C@@H](F)CCO5)cc3n2)c(OC(F)F)n1 [Compound 347]
- pIC50 [1]: 7.76
- Ratio (MDA-MMTV IC50 (μM) divided by A549-MMTV IC50 (μM)) [1]: 25.03

SMILES: COc1nc(C(F)(F)F)ccc1-c1ccc2cnc(CNC(=O)c3cc(Cl)c4c(c3)S(=O)(=O)[C@@H](F)CCO4)cc2n1 [Compound 348]
- pIC50 [1]: 7.86
- Ratio (MDA-MMTV IC50 (μM) divided by A549-MMTV IC50 (μM)) [1]: 30.79

SMILES: CN(C)c1nccc(-c2ccc3cnc(CNC(=O)c4cc(F)c5c(c4)S(=O)(=O)[C@@H](F)CCO5)cc3n2)n1 [Compound 349]
- pIC50 [1]: 7.89
- Ratio (MDA-MMTV IC50 (μM) divided by A549-MMTV IC50 (μM)) [1]: 34.91

SMILES: C[C@@H]1CN(c2cccc(-c3ccc4cnc(CNC(=O)c5cc(C6CC6)c6c(c5)S(=O)(=O)[C@@H](F)CCO6)cc4n3)n2)C[C@H](C)O1 [Compound 350]
- pIC50 [1]: 7.77
- Ratio (MDA-MMTV IC50 (μM) divided by A549-MMTV IC50 (μM)) [1]: 25.08

SMILES: C[C@@H](CF)c1ccc2c(n1)N(c1ccc3cnc(CNC(=O)c4cc(F)c5c(c4)S(=O)(=O)[C@@H](F)CCO5)cc3n1)CCO2 [Compound 351]
- pIC50 [1]: 7.70
- Ratio (MDA-MMTV IC50 (μM) divided by A549-MMTV IC50 (μM)) [1]: 25.07

SMILES: O=C(NCc1cc2nc(N3CCCc4cc(OC(F)(F)F)cnc43)ccc2cn1)c1cc(F)c2c(c1)S(=O)(=O)[C@@H](F)CCO2 [Compound 352]
- pIC50 [1]: 7.79
- Ratio (MDA-MMTV IC50 (μM) divided by A549-MMTV IC50 (μM)) [1]: 23.28

SMILES: O=C(NCc1cc2nc(N3CCOc4cc(N5CC(F)(F)C5)cnc43)ccc2cn1)c1cc(F)c2c(c1)S(=O)(=O)[C@@H](F)CCO2 [Compound 353]
- pIC50 [1]: 7.81
- Ratio (MDA-MMTV IC50 (μM) divided by A549-MMTV IC50 (μM)) [1]: 21.63

SMILES: COCc1ccc(-c2ccc3cnc(CNC(=O)c4cc(F)c5c(c4)S(=O)(=O)[C@@H](F)CCO5)cc3n2)nc1C1CC1 [Compound 354]
- pIC50 [1]: 7.76
- Ratio (MDA-MMTV IC50 (μM) divided by A549-MMTV IC50 (μM)) [1]: 26.53

SMILES: O=C(NCc1cc2nc(-c3ccc(OC(F)F)c(C4CC4)n3)ccc2cn1)c1cc(Cl)c2c(c1)S(=O)(=O)[C@@H](F)CCO2 [Compound 355]
- pIC50 [1]: 7.88
- Ratio (MDA-MMTV IC50 (μM) divided by A549-MMTV IC50 (μM)) [1]: 23.10

SMILES: COc1nc([C@@](C)(F)C(F)F)ccc1-c1ccc2cnc(CNC(=O)c3cc(F)c4c(c3)S(=O)(=O)[C@@H](F)CCO4)cc2n1 [Compound 356]
- pIC50 [1]: 7.84
- Ratio (MDA-MMTV IC50 (μM) divided by A549-MMTV IC50 (μM)) [1]: 23.98
